In patent US4083993A, “Compositions containing benzoylacetonitrile and method of use to treat inflammation” (American Cyanamid Co., priority 1977, dated 1978):

Test system: adjuvant induced arthritis
Assay: adjuvant induced arthritis in rats (Freund's adjuvant, injected right hind paw; chronic inflammation with joint destruction)
Format: in vivo, royal Hart, Wistar strain rats
Conditions: oral, once daily days 0-13
Method: Groups of three royal Hart, Wistar strain rats weighing 200+10 grams each were injected intradermally in the right hind paw with Freund's adjuvant (dried human tubercle bacilli in a mineral oil vehicle) at a dose of 2 mg./kg. of body weight. Test compounds were administered orally in a 1.5% starch vehicle at various doses once daily on days 0 through 13 post challenge. Control rats were treated in a similar manner, but given only starch vehicle. On the 14th and 21st day post challenge the diameter of the injected paw (primary lesion) was measured by micrometer caliper. The volume of inflamed paws were estimated from these measurements and the results are expressed as percent inhibition of swelling as compared to controls. At the same time, the other inflamed sites, such as ears, paws and tail (secondary lesions) were observed and each rat was graded as to degree of inflammation and swelling present. The grading is based on a scale of 0 to 24, where 0 represents a complete absence of induced arthritic nodules and 24 represents the maximum degree of inflammation. The mean grade for each treated group is calculated and the effects of each compound are expressed as percent inhibition of the control grade. Table I records the results of these tests conducted with benzoylacetonitrile, o-fluorobenzoylacetonitrile, m-fluorobenzoylacetonitrile, p-fluorobenzoylacetonitrile, and known anti-inflammatory agents. The active compounds of the present invention suppress the progression of the arthritis and associated joint deterioration.

[1] = 25 mg./kg. of body weight, day 14
[2] = 25 mg./kg. of body weight, day 21
[3] = 50 mg./kg. of body weight, day 14
[4] = 50 mg./kg. of body weight, day 21
[5] = 100 mg./kg. of body weight, day 14
[6] = 100 mg./kg. of body weight, day 21
[7] = 200 mg./kg. of body weight, day 14
[8] = 200 mg./kg. of body weight, day 21
[9] = 400 mg./kg. of body weight, day 14
[10] = 400 mg./kg. of body weight, day 21

| Structure (SMILES) | Dead/Treated At 21 Days (25 mg./kg. of body weight) | % Inhibition of Control Grade (secondary lesion) [1] [%] | % Inhibition of Swelling (primary lesion) [1] [%] | Mean Weight Gain [1] [grams] | % Inhibition of Control Grade (secondary lesion) [2] [%] | % Inhibition of Swelling (primary lesion) [2] [%] | Mean Weight Gain [2] [grams] | Dead/Treated At 21 Days (50 mg./kg. of body weight) | % Inhibition of Control Grade (secondary lesion) [3] [%] | % Inhibition of Swelling (primary lesion) [3] [%] | Mean Weight Gain [3] [grams] | % Inhibition of Control Grade (secondary lesion) [4] [%] | % Inhibition of Swelling (primary lesion) [4] [%] | Mean Weight Gain [4] [grams] | Dead/Treated At 21 Days (100 mg./kg. of body weight) | % Inhibition of Control Grade (secondary lesion) [5] [%] | % Inhibition of Swelling (primary lesion) [5] [%] | Mean Weight Gain [5] [grams] | % Inhibition of Control Grade (secondary lesion) [6] [%] | % Inhibition of Swelling (primary lesion) [6] [%] | other results |
| --- | --- | --- | --- | --- | --- | --- | --- | --- | --- | --- | --- | --- | --- | --- | --- | --- | --- | --- | --- | --- | --- |
| N#CCC(=O)c1ccccc1 [Benzoylacetonitrile, benzoylacetonitrile] | 3/36 | 40 | 54 | 54 | 14 | 33 | 56 | 6/54 | 52 | 51 | 53 | 26 | 42 | 59 | 5/36 | 70 | 63 | 49 | 43 | 48 | Mean Weight Gain [6]: 65 grams; Dead/Treated At 21 Days (200 mg./kg. of body weight): 2/18; % Inhibition of Control Grade (secondary lesion) [7]: 70%; % Inhibition of Swelling (primary lesion) [7]: 73%; Mean Weight Gain [7]: 56 grams; % Inhibition of Control Grade (secondary lesion) [8]: 43%; % Inhibition of Swelling (primary lesion) [8]: 48%; Mean Weight Gain [8]: 81 grams; Dead/Treated At 21 Days (400 mg./kg. of body weight): 3/18; % Inhibition of Control Grade (secondary lesion) [9]: 84%; % Inhibition of Swelling (primary lesion) [9]: 81%; Mean Weight Gain [9]: 31 grams; % Inhibition of Control Grade (secondary lesion) [10]: 82%; % Inhibition of Swelling (primary lesion) [10]: 72%; Mean Weight Gain [10]: 72 grams |
| N#CCC(=O)c1cccc(F)c1 [m-Fluorobenzoylacetonitrile, m-fluorobenzoylacetonitrile] | – | – | – | – | – | – | – | 0/21 | – | 40 | 43 | – | 27 | 37 | – | – | – | – | – | – | – |
| N#CCC(=O)c1ccccc1F [o-Fluorobenzoylacetonitrile, o-fluorobenzoylacetonitrile] | – | – | – | – | – | – | – | 1/18 | – | 63 | 71 | – | 49 | 72 | – | – | – | – | – | – | – |
| N#CCC(=O)c1ccc(F)cc1 [p-Fluorobenzoylacetonitrile, p-fluorobenzoylacetonitrile] | 1/18 | 25 | 33 | 55 | 0 | 17 | 48 | 2/36 | 13 | 56 | 61 | 0 | 39 | 58 | 4/18 | 44 | 46 | 63 | 10 | 32 | Mean Weight Gain [6]: 71 grams; Dead/Treated At 21 Days (200 mg./kg. of body weight): 3/18; % Inhibition of Control Grade (secondary lesion) [7]: 63%; % Inhibition of Swelling (primary lesion) [7]: 52%; Mean Weight Gain [7]: 67 grams; % Inhibition of Control Grade (secondary lesion) [8]: 16%; % Inhibition of Swelling (primary lesion) [8]: 32%; Mean Weight Gain [8]: 62 grams; Dead/Treated At 21 Days (400 mg./kg. of body weight): 3/18; % Inhibition of Control Grade (secondary lesion) [9]: 72%; % Inhibition of Swelling (primary lesion) [9]: 75%; Mean Weight Gain [9]: 42 grams; % Inhibition of Control Grade (secondary lesion) [10]: 45%; % Inhibition of Swelling (primary lesion) [10]: 63%; Mean Weight Gain [10]: 64 grams |
